The values below are quoted from earlier work in patent US20080058211A1, “Method and Composition for the Modulation of Toxin Resistance in Plant Cells” (BOARD OF REGENTS, THE UNIVERSITY OF TEXAS SYSTEM, priority 2006, published 2008).

Structures are written as SMILES.

Series [1] relates to LOX2, ACS6, PAL1. The conditions noted are these: cited from earlier work.
The subject of series [2] is maize roots. The settings on record: concentrations that inhibited gravitropic growth; cited from earlier work.
For series [3], the system named is Arabidopsis leaves. The conditions noted are these: applied into intercellular spaces of leaves; cited from earlier work.
Series [4] has as its system [Ca^2+]cyt in excised roots. The settings on record: cited from earlier work.
Series [5] concerns [Ca^2+]cyt. The conditions noted are these: dextran-conjugated calcium green as reporter; cited from earlier work.
In series [6] the test system is ATMEKK1, ATMPK3, ATPK19, ERF2, ERF3, ERF4 and ACS6 genes. The conditions noted are these: application of 500 μM; cited from earlier work.
The subject of series [7] is roots. The conditions noted are these: in vivo; cited from earlier work.
Series [8] deals with root hairs of Arabidopsis thaliana. The settings on record: cited from earlier work.
Series [9] relates to Arabidopsis roots. The settings on record: concentrations that inhibited gravitropic growth; cited from earlier work.
Series [10] relates to root hairs. The conditions noted are these: cited from earlier work.
Series [11] relates to Arabidopsis pollen. The conditions noted are these: Steinenbrunner et al., 2003; cited from earlier work.

Consider `Nc1ncnc2c1ncn2[C@@H]1O[C@H](COP(=O)(O)OP(=O)(O)OP(=O)(O)O)[C@@H](O)[C@H]1O` [ATP], for which the “message abundance for PAL1” value in series [1] is on record as “increased”. The “expression of LOX2 and ACS6” value in [1] (micromolar concentrations that induced superoxide production) is on record as “up-regulated”. The auxin transport entry in series [2] and in series [9] was “inhibited auxin transport” in each case. For the same molecule, the “concentration sufficient to induce significant superoxide production” value in series [3] is reported as 500 nM. In addition, the “increase in [Ca2+]cyt” value in [4] (300 nM ATP, excised roots, 10 mM CaCl2, in less than about 10 seconds) was 2 fold. Also, in series [4] (1 μM ATP, from ca. 100 nM), the “[Ca2+]cyt after treatment” value is reported as “over 400 nM”. For the same molecule, in series [5], the “change in [Ca2+]cyt” value was “no change”. Moreover, the “abundance of mRNAs (MAP kinases, ERF2, ERF3, ERF4, ACS6)” value in series [6] is on record as “induced an increased abundance”. In [7], the “concentration that could inhibit the straight growth of roots” value is on record as 3 mM. Besides, the “induction of membrane depolarization” value in [8] (applied nucleotide or phosphate) is reported as “induced large depolarizations”. Besides, the EC50 in series [8] (dose-response studies, read-out: half-maximal depolarization) is around 400 µM. The “increase in root hair growth” value in series [10] is “not”. For the same molecule, in series [11], the “concentration shown to affect pollen germination” value is 1 to 2 mM.
